In PMC9652300, “Neolignans isolated from Saururus cernuus L. (Saururaceae) exhibit efficacy against Schistosoma mansoni” (Scientific Reports, 2022):
Read-outs that look alike come from different tables or passages of the source.

Experiments:
S. mansoni adult worms [1] = conditions: cited from earlier work
S. mansoni adult worms [2] = assay: Antischistosomal assay: viability of ex vivo adult worm pairs; assay type: cell-based
Experimental: The life cycle of S. mansoni (BH strain) is maintained by routine passage through Biomphalaria glabrata snails and Swiss mice at Guarulhos University (UNG, Guarulhos, SP, Brazil). Rodents, three weeks-old, were purchased from Animais de Laboratório Criação e Comércio (Paulínea, SP, Brazil). Both mice and snails were kept under environmentally controlled conditions (25 °C; humidity of 50%), with free access to food and water. Cercariae of S. mansoni were obtained from infected intermediate host snails in our laboratories as described previously[63],[64].
(§1) The antischistosomal assay was performed as previously described[65],[66]. Briefly, S. mansoni adult parasites were obtained from infected mice at day 42 post-infection (parasite ex vivo). One adult male and one adult female worms (i.e. one worm pairs) were incubated in flat bottom 24-well plates (Corning, New York, NY, USA) in the presence of threo-austrobailignan-6 and verrucosin (started at 50 µM and followed a twofold dilution series) in RPMI 1640 culture medium supplemented with 5% inactivated fetal calf serum and containing antibiotics (100 U/mL penicillin and 100 μg/mL streptomycin). The control schistosomes were assayed in a culture medium and 0.5% DMSO (representing the highest concentration of solvent). Each concentration (50, 25, 12.5, 6.25, 3.12 µM) was tested in five replicates, and the experiments were repeated three times. Parasites were kept for 72 h (37 °C, 5% CO2), and their viability was monitored microscopically at 2, 24, 48, and 72 h using both a Motic AE2000 inverted microscope (Vancouver, Canada) and a Leica EZ4E stereomicroscope (Wetzlar, Germany). The death of adult schistosomes was defined as no movement observed for at least 1 to 2 min of examination, whereas parasites with any body movement were considered viable. The percentage of viable adult schistosomes was calculated considering worms exposed to compounds vs control worms. For assessment of the reproductive fitness of S. mansoni, the number of eggs was counted daily using an inverted microscope (Motic) as previously described.
(§2) Statistical analyses were performed using Graph Pad Prism software 8.0 (San Diego, CA, USA). Data are presented as the mean ± standard deviation (SD) of at least three independent experiments, EC50 and, CC50 values were calculated using sigmoid dose–response curves. For S. mansoni egg production, significant differences were determined by one-way analysis of variance (ANOVA) and applying Tukey's test for multiple comparisons with a level of significance set at P < 0.05.

[3] = tested on: Vero (monkey kidney cells); assay: Cytotoxicity MTT assay, Vero cells; assay type: cell-based, African green monkey; conditions: CC50 Vero / EC50 S. mansoni
Experimental: (§3) HaCaT (human epithelial cells) and Vero (monkey kidney cells) were obtained from the Banco de Células do Rio de Janeiro (BCRJ, RJ, Brazil) and the American Type Culture Collection (ATCC CCL-81; Manassas, VA, USA), respectively. Cells were cultured in DMEM medium supplemented with 10% heat-inactivated fetal bovine serum and antibiotics (100 U/mL penicillin and 100 μg/mL streptomycin) at 37 °C in a humidified atmosphere containing 5% CO2. They were maintained in 25 cm^2 culture flasks (Corning, Tewksbury, MA, USA) and harvested using 0.25% trypsin in 0.2 g/L EDTA solution.
(§4) The MTT assay was used to evaluate the cytotoxic activity as previously described[71],[72]. Briefly, cells were seeded (2 × 10^3/well in 96-well culture plates) and incubated with threo-austrobailignan-6 and verrucosin (started at 500 µM and followed a threefold dilution series) for 72 h at 37 °C and 5% CO2. MTT solution was added to each well and the absorbance was read on an Epoch Microplate Spectrophotometer (BioTek Instruments, Winooski, VT, USA) at 595 nm. The selectivity indices (SI) were calculated by dividing the 50% cytotoxic concentration (CC50) obtained on cells with 50% effective concentration (EC50) values determined on schistosomes.
as §2

[4] = Cytotoxicity MTT assay, Vero cells; assay type: cell-based, African green monkey; conditions: African green monkey, Vero cells (monkey kidney cells); Vero cells, MTT, 72 h
Experimental: as §3, §4, §2

S. mansoni infections = tested on: S. mansoni infections; design: method as in PMID 25412105, PMID 28126024; conditions: systematic reviews and meta-analyses; cited from earlier work
[5] = Cytotoxicity MTT assay, HaCaT cells; assay type: cell-based, human; conditions: human, HaCaT cells (human epithelial cells); HaCaT cells, MTT, 72 h
Experimental: as §3, §4, §2

[6] = tested on: S. mansoni adult worm pairs; assay: Egg production (reproductive fitness) of paired adult worms; assay type: cell-based, Schistosoma mansoni; conditions: for total number of eggs vs control worms / oviposition: within 72 h
Experimental: as §1, §2

[7] = tested on: HaCaT (human epithelial cells); assay: Cytotoxicity MTT assay, HaCaT cells; assay type: cell-based; conditions: CC50 HaCaT / EC50 S. mansoni
Experimental: as §3, §4, §2

[8] = Schistosoma mansoni, 72 h, adult worms, male and female, 72 h, read-out: EC50 (schistosomicidal activity)
[9] = Schistosoma mansoni, 72 h, ex vivo adult female worms, 72 h exposure, brackets = 95% confidence interval, read-out: S. mansoni EC50 Female
[10] = Schistosoma mansoni, 72 h, ex vivo adult male worms, 72 h exposure, brackets = 95% confidence interval, read-out: S. mansoni EC50 Male

Compound: 2-oxopopulifolic acid methyl ester
- in vitro effective concentration (S. mansoni adult worms [1]): 50 µM

Compound: C=CC(C)(O)CCC=C(C)CCC=C(C)C (mixture of isomers) [nerolidol]
- in vitro effective concentration (S. mansoni adult worms [1]): 85 µM

Compound: CC1=CC(=O)CC2[C@]1(C)CC[C@@H](C)[C@]2(C)CCC(C)CC(=O)O (stereo partly drawn) [2-oxopopulifolic acid]
- in vitro effective concentration (S. mansoni adult worms [1]): 50 µM

Compound: CC(C)CCCC(C)CCO (stereo not drawn) [3,7-dimethylloctanol]
- in vitro effective concentration (S. mansoni adult worms [1]): 52 µM

Compound: O=C(C1CCCCC1)N1CC(=O)N2CCc3ccccc3C2C1 (stereo not drawn) [Praziquantel, praziquantel, reference compound]
- EC50 (S. mansoni adult worms [2]; [8]): < 0.93 µM
- EC50 (S. mansoni adult worms [2]; [9]): 0.8 µM
- EC50 (S. mansoni adult worms [2]; [10]): 0.7 µM
- mortality of adult worm pairs (S. mansoni adult worms [2]; praziquantel at 2 µM, monitored up to 72 h): mortality of all worms immediately
- Monkey cells SI (Selectivity Index) [3]: > 714
- CC50 at 72 h [4]: > 500 µM
- cure rate (S. mansoni infections): approximately 75%
- CC50 at 72 h [5]: > 500 µM

Compound: COc1cc(C[C@@H](C)[C@H](C)Cc2ccc3c(c2)OCO3)ccc1O [Threo-austrobailignan-6, threo-austrobailignan-6]
- EC50 (S. mansoni adult worms [2]; [8]): < 30 µM
- EC50 (S. mansoni adult worms [2]; [9]): 28.1 µM
- EC50 (S. mansoni adult worms [2]; [10]): 22.9 µM
- mortality at 25 µM (S. mansoni adult worms [2]; Schistosoma mansoni, 72 h, read-out: mortality of male worms): 100%
- Monkey cells SI (Selectivity Index) [3]: > 17.8
- CC50 at 72 h [4]: > 500 µM
- pairing of male and female parasites ([6]; 25 μM): remained coupled
- total number of eggs vs control worms ([6]; 25 μM): significantly reduced
- pairing of male and female parasites ([6]; 50 μM): separated
- oviposition ([6]; 50 μM): complete lack of oviposition
- CC50 at 72 h [5]: > 500 µM
- Human cells SI (Selectivity Index) [7]: > 17.8

Compound: COc1cc([C@H]2O[C@@H](c3ccc(O)c(OC)c3)[C@@H](C)[C@@H]2C)ccc1O [Verrucosin, verrucosin]
- time to death of all female worms (S. mansoni adult worms [2]; 25 μM): ≤ 72 h
- mortality at 25 µM (S. mansoni adult worms [2]; Schistosoma mansoni, 48 h, read-out: mortality of male parasites): 100%
- EC50 (S. mansoni adult worms [2]; [9]): 18.7 µM
- EC50 (S. mansoni adult worms [2]; [10]): 12.6 µM
- EC50 (S. mansoni adult worms [2]; adult worms, male and female, 72 h, read-out: EC50 (schistosomicidal activity)): < 30 µM
- Monkey cells SI (Selectivity Index) [3]: > 26.8
- CC50 at 72 h [4]: > 500 µM
- oviposition ([6]; 12.5 μM, P < 0.01): significant reduction
- pairing of male and female parasites ([6]; 25 μM): remained coupled
- total number of eggs vs control worms ([6]; 25 μM): significantly reduced
- pairing of male and female parasites ([6]; 50 μM): separated
- oviposition ([6]; 50 μM): complete lack of oviposition
- CC50 at 72 h [5]: > 500 µM
- Human cells SI (Selectivity Index) [7]: > 26.8

Compound: COc1cc(O)cc(O)c1C(=O)/C=C/c1ccccc1 [cardamonin]
- in vitro effective concentration (S. mansoni adult worms [1]): 25 µM

Compound: Cc1ccc(C(C)C)cc1O [carvacrol]
- in vitro effective concentration (S. mansoni adult worms [1]): 56.8 µM

Compound: CC(=O)Oc1cc(C(C)C)ccc1C [carvacryl acetate]
- in vitro effective concentration (S. mansoni adult worms [1]): 42.16 µM

Compound: C=C1C(=O)O[C@@H]2/C=C(\CO)CC/C=C(\C)C[C@H](OC(=O)C(=C)[C@@H](O)CO)[C@@H]12 [cnicin]
- in vitro effective concentration (S. mansoni adult worms [1]): 50 µM

Compound: C=C1C[C@@]23CC[C@H]4[C@@](C)(CCC[C@@]4(C)C(=O)O)[C@@H]2CC[C@@H]1C3 [ent-kaur-16-en-19-oic acid]
- in vitro effective concentration (S. mansoni adult worms [1]): 26.1 µM

Compound: C/C=C/c1cc(OC)c2c(c1)[C@H](C)[C@@H](c1ccc(O)c(OC)c1)O2 [licarin A]
- in vitro effective concentration (S. mansoni adult worms [1]): 30 µM

Compound: C=CC(C)(C)c1cc(/C=C/C(=O)c2ccc(O)cc2)c(OC)cc1O [licochalcone A]
- in vitro effective concentration (S. mansoni adult worms [1]): 50 µM
